Assay results reported in patent publication US9102701B2, “17-hydroxy-17-pentafluoroethyl-estra-4,9(10)-diene-11-ethynylphenyl derivatives, methods for the production thereof and use thereof for treating diseases” (Bayer Intellectual Property GmbH, priority 2009, dated 2015).
Converted amounts (≈) assume the structure as drawn. Where two headings read alike, the source gives them in different places.

Columns and labels:
[1] = Solubility in aqueous medium at pH 7.4; assay type: physicochemical; conditions: aqueous medium, pH 7.4, aqueous buffer
[2] = target: T1, human progesterone receptor B (Homo sapiens, UniProt P06401); assay: Progesterone receptor-antagonistic action in stably transfected SK-N-MC cells, PR-B, MMTV-LUC reporter; assay type: cell-based
T1 construct: expressed in transfected cells; host or cells: SK-N-MC human neuroblastoma cells, stably transfected with pRChPR-B-neo and pMMTV-LUC
T1 sequence (P06401 1-933): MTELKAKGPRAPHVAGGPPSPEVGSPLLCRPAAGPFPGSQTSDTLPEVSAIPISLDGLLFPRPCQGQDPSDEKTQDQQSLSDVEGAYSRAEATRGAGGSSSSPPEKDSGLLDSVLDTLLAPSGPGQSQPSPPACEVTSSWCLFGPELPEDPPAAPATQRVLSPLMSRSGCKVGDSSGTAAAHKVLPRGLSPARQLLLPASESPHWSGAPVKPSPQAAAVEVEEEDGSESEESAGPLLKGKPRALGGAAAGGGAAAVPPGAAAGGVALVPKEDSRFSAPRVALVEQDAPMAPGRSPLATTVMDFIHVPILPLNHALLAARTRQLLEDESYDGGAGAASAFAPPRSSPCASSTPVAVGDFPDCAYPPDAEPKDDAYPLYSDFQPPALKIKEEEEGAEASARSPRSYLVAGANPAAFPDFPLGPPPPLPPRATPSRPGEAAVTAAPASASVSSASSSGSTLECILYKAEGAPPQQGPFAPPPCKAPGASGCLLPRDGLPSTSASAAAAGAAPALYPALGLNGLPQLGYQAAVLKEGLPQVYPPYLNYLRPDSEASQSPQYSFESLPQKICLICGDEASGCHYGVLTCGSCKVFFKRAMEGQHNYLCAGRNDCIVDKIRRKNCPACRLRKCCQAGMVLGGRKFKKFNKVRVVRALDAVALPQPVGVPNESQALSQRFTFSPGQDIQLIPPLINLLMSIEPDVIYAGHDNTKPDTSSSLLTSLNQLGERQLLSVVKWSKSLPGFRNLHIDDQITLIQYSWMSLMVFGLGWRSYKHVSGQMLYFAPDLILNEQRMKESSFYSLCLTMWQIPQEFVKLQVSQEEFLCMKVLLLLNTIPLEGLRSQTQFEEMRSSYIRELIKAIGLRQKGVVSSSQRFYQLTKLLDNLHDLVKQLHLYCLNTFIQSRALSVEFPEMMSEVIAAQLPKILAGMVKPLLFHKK
Outline: (§1)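 SK-N-MC neuroblastoma cells stably expressing human PR-A or PR-B plus MMTV-LUC reporter, treated 24 h with compound (0.01 nmol/l upward). Antagonism measured against 0.1 nmol/l promegestone; luciferase in lysates as RLU, given as % efficacy and IC50 (agonism as EC50).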

[3] = target: T2, human progesterone receptor A (Homo sapiens, UniProt P06401); assay: Progesterone receptor-antagonistic action in stably transfected SK-N-MC cells, PR-A, MMTV-LUC reporter; assay type: cell-based
T2 construct: expressed in transfected cells; host or cells: SK-N-MC human neuroblastoma cells, stably transfected with pRChPR-A-neo and pMMTV-LUC
T2 sequence (P06401 1-769 isoform P06401-2): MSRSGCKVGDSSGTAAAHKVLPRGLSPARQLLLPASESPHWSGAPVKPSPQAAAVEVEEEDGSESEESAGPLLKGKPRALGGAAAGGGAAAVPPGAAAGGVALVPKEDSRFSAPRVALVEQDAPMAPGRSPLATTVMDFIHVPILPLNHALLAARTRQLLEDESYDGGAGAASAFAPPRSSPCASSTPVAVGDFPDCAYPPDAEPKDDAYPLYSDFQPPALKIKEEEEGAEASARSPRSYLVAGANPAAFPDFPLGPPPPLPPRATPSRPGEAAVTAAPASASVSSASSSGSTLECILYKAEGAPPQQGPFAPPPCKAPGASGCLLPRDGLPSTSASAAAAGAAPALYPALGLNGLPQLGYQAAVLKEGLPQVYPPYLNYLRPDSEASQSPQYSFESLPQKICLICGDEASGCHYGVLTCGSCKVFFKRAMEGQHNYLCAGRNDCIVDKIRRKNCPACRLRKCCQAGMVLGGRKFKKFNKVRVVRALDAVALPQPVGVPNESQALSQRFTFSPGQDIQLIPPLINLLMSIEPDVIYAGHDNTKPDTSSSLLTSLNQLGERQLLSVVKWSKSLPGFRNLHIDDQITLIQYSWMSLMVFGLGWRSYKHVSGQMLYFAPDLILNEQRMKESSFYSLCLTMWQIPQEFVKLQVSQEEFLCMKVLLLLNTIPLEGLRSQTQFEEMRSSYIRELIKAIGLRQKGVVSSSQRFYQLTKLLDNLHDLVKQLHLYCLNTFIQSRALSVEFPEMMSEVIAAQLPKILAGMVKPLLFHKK
Outline: as §1

[4] = Metabolic stability in human liver microsomes; assay type: in vitro ADME; conditions: for Predicted Fmax (maximum oral bioavailability) Human: calculated from liver microsome data; for Predicted clearance Human: predicted in vivo clearance from liver microsomes, well-stirred model, 1 μM
Protocol: Determination of Metabolic Stability in Human and Rat Liver Microsomes
Isolated Human Liver Microsomes (HLM) were Used to Assess the Metabolic Stability of compounds of general formula I.
The incubations were conducted with 2.4 ml of HLM solution (protein content 0.5 mg/ml), 30 μl of the test compound (final concentration 1 μM) and 0.6 ml of the cofactor mixture (═NADPH-generating system composed of 3 IU glucose-6-phosphate dehydrogenase, 14.6 mg glucose-6-phosphate, 1.2 mg NADP) at 37° C. in 100 mM phosphate buffer at pH 7.4. Samples were taken at 6 time points (2-60 min) and precipitated with an equal volume of methanol, and the recovery of the test substances used in the supernatant was determined by LC-MS/MS analysis. The half-life of substance degradation determined therefrom was used to calculate what is called the intrinsic clearance of the substance in the liver microsome preparation.

Which solubility [1] does the source give for `CCO/N=C/C#Cc1ccc([C@H]2C[C@@]3(C)[C@@H](CC[C@@]3(O)C(F)(F)C(F)(F)F)[C@@H]3CCC4=CC(=O)CCC4=C32)cc1` [Example 25A, (E)-[4-((8S,11R,13S,14S,17S)-17-hydroxy-13-methyl-3-oxo-17-pentafluoroethyl-2,3,6,7,8,11,12,13,14,15,16,17-dodecahydro-1H-cyclopenta[a]phenanthren-1′-yl)phenyl]propynal O-ethyl oxime] here?
The solubility was 5 µg/mL (≈ 8.9 µM).

What about the IC50 ([2]; read-out: IC50 PR-B) of the same compound?
Its IC50 is 0.08 nM.

And the IC50 ([3]; read-out: IC50 PR-A)?
The IC50 was 0.01 nM.

And the “Predicted Fmax (maximum oral bioavailability) Human” value [4]?
The value was 47%.

And the “Predicted clearance Human” value [4]?
Its value is 11.7 mL/min/kg.

For `CCNC(=O)NCC#Cc1ccc([C@H]2C[C@@]3(C)C(CC[C@@]3(O)C(F)(F)C(F)(F)F)C3CCC4=CC(=O)CCC4=C32)cc1` (stereo partly drawn) [Example 31, 1-ethyl-3-{3-[4-((8S,11R,13S,14S,17S)-17-hydroxy-13-methyl-3-oxo-17-pentafluoroethyl-2,3,6,7,8,11,12,13,14,15,16,17-dodecahydro-1H-cyclopenta[a]phenanthren-1′-yl)phenyl]prop-2-ynyl}urea], which solubility [1] is on record?
The solubility was 10 µg/mL (≈ 16.9 µM).

What about the IC50 ([2]; read-out: IC50 PR-B) of the same compound?
Its IC50 is 0.1 nM.

What about the IC50 ([3]; read-out: IC50 PR-A) of the same compound?
The IC50 was 0.08 nM.

And the “Predicted Fmax (maximum oral bioavailability) Human” value [4]?
Its value is 15%.

And the “Predicted clearance Human” value [4]?
Its value is 18.8 mL/min/kg.

Which IC50 [2] does the source give for `COC(=O)C#Cc1ccc([C@H]2C[C@@]3(C)C(CC[C@@]3(O)C(F)(F)C(F)(F)F)C3CCC4=CC(=O)CCC4=C32)cc1` (stereo partly drawn) [Example 3, [4-((8S,11R,13S,14S,17S)-17-hydroxy-13-methyl-3-oxo-17-pentafluoroethyl-2,3,6,7,8,11,12,13,14,15,16,17-dodecahydro-1H-cyclopenta[a]phenanthren-1′-yl)phenyl]propynoic acid methyl ester] here?
Its IC50 is 1.2 nM.

And the IC50 [3]?
The IC50 was 1.8 nM.

Which IC50 ([2]; read-out: IC50 PR-B) does the source give for `CCOC(=O)c1ccc(NC(=O)NCC#Cc2ccc([C@H]3C[C@@]4(C)C(CC[C@@]4(O)C(F)(F)C(F)(F)F)C4CCC5=CC(=O)CCC5=C43)cc2)cc1` (stereo partly drawn) [Example 37, 4-(3-{3-[4-((8S,11R,13S,14S,17S)-17-hydroxy-13-methyl-3-oxo-17-pentafluoroethyl-2,3,6,7,8,11,12,13,14,15,16,17-dodecahydro-1H-cyclopenta[a]phenanthren-1′-yl)phenyl]prop-2-ynyl}ureido)benzoic acid ethyl ester] here?
Its IC50 is 0.4 nM.

What about the IC50 ([3]; read-out: IC50 PR-A) of the same compound?
The IC50 was 0.1 nM.

For `CC(C)(C)OC(=O)COCC#Cc1ccc([C@H]2C[C@@]3(C)[C@@H](CC[C@@]3(O)C(F)(F)C(F)(F)F)[C@@H]3CCC4=CC(=O)CCC4=C32)cc1` [Example 8, {3-[4-((8S,11R,13S,14S,17S)-17-hydroxy-13-methyl-3-oxo-17-pentafluoroethyl-2,3,6,7,8,11,12,13,14,15,16,17-dodecahydro-1H-cyclopenta[a]phenanthren-11-yl)phenyl]prop-2-ynyloxy}acetic acid tert-butyl ester], which IC50 ([2]; read-out: IC50 PR-B) is on record?
The IC50 was 0.41 nM.

What about the IC50 ([3]; read-out: IC50 PR-A) of the same compound?
The IC50 was 0.32 nM.

Which IC50 ([2]; read-out: IC50 PR-B) does the source give for `CC(C)(C)c1ccc(NC(=O)NCC#Cc2ccc([C@H]3C[C@@]4(C)[C@@H](CC[C@@]4(O)C(F)(F)C(F)(F)F)[C@@H]4CCC5=CC(=O)CCC5=C43)cc2)cc1` [Example 33, 1-{3-[4-((8S,11R,13S,14S,17S)-17-hydroxy-13-methyl-3-oxo-17-pentafluoroethyl-2,3,6,7,8,11,12,13,14,15,16,17-dodecahydro-1H-cyclopenta[a]phenanthren-11-yl)phenyl]prop-2-ynyl}-3-(4-tert-butylphenyl)urea] here?
Its IC50 is 0.8 nM.

What about the IC50 ([3]; read-out: IC50 PR-A) of the same compound?
Its IC50 is 0.9 nM.

Which IC50 ([2]; read-out: IC50 PR-B) does the source give for `CCO/N=C\C#Cc1ccc([C@H]2C[C@@]3(C)C(CC[C@@]3(O)C(F)(F)C(F)(F)F)C3CCC4=CC(=O)CCC4=C32)cc1` (stereo partly drawn) [Example 25B, (Z)-[4-((8S,11R,13S,14S,17S)-17-hydroxy-13-methyl-3-oxo-17-pentafluoroethyl-2,3,6,7,8,11,12,13,14,15,16,17-dodecahydro-1H-cyclopenta[a]phenanthren-1′-yl)phenyl]propynal O-ethyl oxime] here?
Its IC50 is 0.09 nM.

What about the IC50 ([3]; read-out: IC50 PR-A) of the same compound?
Its IC50 is 0.09 nM.

For `CCNC(=O)OCC#Cc1ccc([C@H]2C[C@@]3(C)C(CC[C@@]3(O)C(F)(F)C(F)(F)F)C3CCC4=CC(=O)CCC4=C32)cc1` (stereo partly drawn) [Example 45, ethylcarbamic acid 3-[4-((8S,11R,13S,14S,17S)-17-hydroxy-13-methyl-3-oxo-17-pentafluoroethyl-2,3,6,7,8,11,12,13,14,15,16,17-dodecahydro-1H-cyclopenta[a]phenanthren-1′-yl)phenyl]prop-2-ynyl ester], which IC50 ([2]; read-out: IC50 PR-B) is on record?
The IC50 was 0.01 nM.

And the IC50 ([3]; read-out: IC50 PR-A)?
Its IC50 is 0.01 nM.

Which results are given for `C[C@]12C[C@H](c3ccc(C#CCOC(=O)Nc4ccccc4)cc3)C3=C4CCC(=O)C=C4CCC3C1CC[C@@]2(O)C(F)(F)C(F)(F)F` (stereo partly drawn) [Example 46, phenylcarbamic acid 3-[4-((8S,11R,13S,14S,17S)-17-hydroxy-13-methyl-3-oxo-17-pentafluoroethyl-2,3,6,7,8,11,12,13,14,15,16,17-dodecahydro-1H-cyclopenta[a]phenanthren-1′-yl)phenyl]prop-2-ynyl ester]?
IC50 ([2]; read-out: IC50 PR-B): 0.01 nM; IC50 ([3]; read-out: IC50 PR-A): 0.01 nM

Which results are given for `C[C@]12C[C@H](c3ccc(C#CCN=[N+]=[N-])cc3)C3=C4CCC(=O)C=C4CC[C@H]3[C@@H]1CC[C@@]2(O)C(F)(F)C(F)(F)F` [Example 23, (8S,11R,13S,14S,17S)-11-[4-(3-azidoprop-1-yn-1-yl)phenyl]-17-hydroxy-13-methyl-17-pentafluoroethyl-1,2,6,7,8,11,12,13,14,15,16,17-dodecahydrocyclopenta[a]phenanthren-3-one]?
IC50 ([2]; read-out: IC50 PR-B): 0.3 nM; IC50 ([3]; read-out: IC50 PR-A): 0.2 nM

Which results are given for `C#Cc1ccc([C@H]2C[C@@]3(C)C(CC[C@@]3(O)C(F)(F)C(F)(F)F)C3CCC4=CC(=O)CCC4=C32)cc1` (stereo partly drawn) [Example 22, (8S,11R,13S,14S,17S)-1′-(4-ethynylphenyl)-17-hydroxy-13-methyl-17-pentafluoroethyl-1,2,6,7,8,11,12,13,14,15,16,17-dodecahydrocyclopenta[a]phenanthren-3-one]?
IC50 ([2]; read-out: IC50 PR-B): 0.014 nM; IC50 ([3]; read-out: IC50 PR-A): 0.014 nM

Which IC50 ([2]; read-out: IC50 PR-B) does the source give for `C[C@]12C[C@H](c3ccc(C#Cc4cccc(S(C)(=O)=O)c4)cc3)C3=C4CCC(=O)C=C4CC[C@H]3[C@@H]1CC[C@@]2(O)C(F)(F)C(F)(F)F` [Example 51, (8S,11R,13S,14S,17S)-17-hydroxy-11-[4-(3-methanesulphonylphenylethynyl)phenyl]-13-methyl-17-pentafluoroethyl-1,2,6,7,8,11,12,13,14,15,16,17-dodecahydrocyclopenta[a]phenanthren-3-one] here?
The IC50 was 0.1 nM.

What about the IC50 ([3]; read-out: IC50 PR-A) of the same compound?
Its IC50 is 0.08 nM.
